# Test results as given in patent US20210060138A1 (priority 2019, published 2021).
# Test system: HIV-1NL4-3-GFP-P2A-Nef
# Assay: ART and LASER ART drug cocktails at 5×EC90 in HIV-1 infected Jurkat T cell line
# Type: cell-based
# Details: Human immunodeficiency virus 1, Jurkat, read-out: 5×EC90 values
# Protocol: FIGS. 6A-6C show the combined effect of ART and CRISPR/Cas9 on HIV-1 infection of Jurkat T cell line. FIG. 6A: Experimental design and procedure. Jurkat cells were infected with HIV-1NL4-3-GFP-P2A-Nef at multiplicity of infection (MOI) 0.001 and 0.01. […] At day 6 of infection the drugs were removed to allow efficient lentiviral transduction of Cas9 and gRNAs LTR A and LTR B which was conducted at day 7. At day 8 antiretrovirals were added back and continued for another 4 days. Twelve days after HIV-1 infection cells were collected, genomic DNA was extracted and analyzed by PCR for CRISPR-Cas9 mediated cleavage of viral LTR sequences. FIG. 6B: Quantification of the level of infection at day 7. Cells were fixed with 2% PFA and FACS analysis was performed to measure GFP expressing population for HIV infection/replication in vitro. FIG. 6C: Similar to FIG. 6B with exception that cells were treated with modified ART.
# In vitro Infection: HEK-293T cells were transfected using CaPO4 precipitation method in the presence of chloroquine (50 μM) with 30 μg of pNL4-3-EGFP-P2A-Nef plasmid (13)/2.5×10^6 cells/100 mm dish. Next day, medium was replaced; and 24 h and 48 h later supernatants were collected, clarified at 3000 RPM for 10 minutes, filtered through 0.45 um filter, and concentrated by ultracentrifugation for 2 h with 20% sucrose cushion (25). Viral pellets were resuspended in HBSS by gentle agitation overnight, aliquoted, and tittered in Jurkat cells by FACS for GFP expression. Jurkat cells were infected by spinoculation for 1.5 h (26), 32° C. in 500 μl inoculum containing 8 μg/ml polybrene then resuspended and left for 4 h then 500 μl of growth medium was added. Next day, cells were washed 3 times with PBS and re-suspended in growth medium.
row,SMILES,EC90 [µg/mL]
1,"Nc1nc(NC2CC2)c2ncn([C@H]3C=C[C@@H](CO)C3)c2n1 [ABC, abacavir]",8.3
2,"Nc1ccn([C@@H]2CS[C@H](CO)O2)c(=O)n1 [3TC, lamivudine]",17.2
3,"Cc1cc(/C=C/C#N)cc(C)c1Nc1ccnc(Nc2ccc(C#N)cc2)n1 [RPV, rilpivirine]",0.0033
4,"C[C@@H]1CCO[C@H]2Cn3cc(C(=O)NCc4ccc(F)cc4F)c(=O)c(O)c3C(=O)N12 [DTG, dolutegravir]",0.0111

# Same assay, conditions: concentration used in the cocktail, equal to 5×EC90
row,SMILES,5×EC90 values [µg/mL]
1,"CCCCCCCCCCCCCC(=O)OCC1C=CC(n2cnc3c(NC4CC4)nc(N)nc32)C1 (stereo not shown) [MABC, myristoylated abacavir]",14.4
2,"CCCCCCCCCCCCCC(=O)OCC1OC(n2ccc(N)nc2=O)CS1 (stereo not shown) [M3TC, myristoylated lamivudine]",32.9
3,"CCCCCCCCCCCCCC(=O)Oc1c2n(cc(C(=O)NCc3ccc(F)cc3F)c1=O)C[C@@H]1OCC[C@@H](C)N1C2=O [MDTG, myristoylated dolutegravir]",0.0167
